The values that follow come from ChEMBL document CHEMBL6071170, “Development of novel focal adhesion kinase (FAK) inhibitors for targeting cancer: Structural insights and therapeutic potential” (Eur J Med Chem, 2024).

For series [1], the target named is T1, Focal adhesion kinase 1 (Homo sapiens, UniProt Q05397). The series can be described thus: Inhibition of human FAK by FRET assay.
Series [2] addresses T2, Protein-tyrosine kinase 2-beta (Homo sapiens, UniProt Q14289). The experiment in a line: Inhibition of PYK2 (unknown origin).
The target of series [3] is T1, Focal adhesion kinase 1. The series can be described thus: Inhibition of FAK (unknown origin).
For series [4], the target named is ALK tyrosine kinase receptor (Homo sapiens, UniProt Q9UM73). The experiment in a line: Inhibition of ALK (unknown origin).
For series [5], the target named is Proto-oncogene tyrosine-protein kinase ROS (Homo sapiens, UniProt P08922). The series can be described thus: Inhibition of ROS1 (unknown origin).
Series [6] concerns the target T2, Protein-tyrosine kinase 2-beta. The experiment in a line: Inhibition of PYK2 (unknown origin) by KinomeScan assay.
The target in series [7] is T1, Focal adhesion kinase 1. The series can be described thus: Inhibition of N-terminal his-tagged human (1 to 422 residues) FAK.
Series [8] addresses T1, Focal adhesion kinase 1. The experiment in a line: Binding affinity to FAK (unknown origin) assessed as inhibition constant.
Series [9] is described as follows: Plasma stability in human assessed as half life by LC-MS/MS analysis. In kind it is ADME, cell-free.
The nature of series [10]: Oral bioavailability in mouse. In kind it is ADME, organism-based. As to conditions: in vivo.
Series [11] addresses Protein cereblon/Focal adhesion kinase 1 (Homo sapiens, UniProt Q05397+Q96SW2). The series can be described thus: PROTAC activity at CRBN/FAK in human PC3 cells assessed as protein degradation incubated for 12 hrs by Western blot analysis relative to control. It is filed as cell-based. As to conditions: pc-3. Background: A western blot detects proteins with antibodies after separation by electrophoresis.

Series [12] addresses Fibroblast growth factor receptor (Homo sapiens, UniProt P22607+P11362+P22455+P21802). The experiment in a line: Inhibition of human recombinant FGFR by FRET assay. In kind it is protein assay.
The target in series [13] is T1, Focal adhesion kinase 1. The experiment in a line: Inhibition of FAK (unknown origin) by FRET analysis.
Series [14] concerns the target T3, Protein deacetylase HDAC6 (Homo sapiens, UniProt Q9UBN7).
T3 sequence (Q9UBN7 whole entry): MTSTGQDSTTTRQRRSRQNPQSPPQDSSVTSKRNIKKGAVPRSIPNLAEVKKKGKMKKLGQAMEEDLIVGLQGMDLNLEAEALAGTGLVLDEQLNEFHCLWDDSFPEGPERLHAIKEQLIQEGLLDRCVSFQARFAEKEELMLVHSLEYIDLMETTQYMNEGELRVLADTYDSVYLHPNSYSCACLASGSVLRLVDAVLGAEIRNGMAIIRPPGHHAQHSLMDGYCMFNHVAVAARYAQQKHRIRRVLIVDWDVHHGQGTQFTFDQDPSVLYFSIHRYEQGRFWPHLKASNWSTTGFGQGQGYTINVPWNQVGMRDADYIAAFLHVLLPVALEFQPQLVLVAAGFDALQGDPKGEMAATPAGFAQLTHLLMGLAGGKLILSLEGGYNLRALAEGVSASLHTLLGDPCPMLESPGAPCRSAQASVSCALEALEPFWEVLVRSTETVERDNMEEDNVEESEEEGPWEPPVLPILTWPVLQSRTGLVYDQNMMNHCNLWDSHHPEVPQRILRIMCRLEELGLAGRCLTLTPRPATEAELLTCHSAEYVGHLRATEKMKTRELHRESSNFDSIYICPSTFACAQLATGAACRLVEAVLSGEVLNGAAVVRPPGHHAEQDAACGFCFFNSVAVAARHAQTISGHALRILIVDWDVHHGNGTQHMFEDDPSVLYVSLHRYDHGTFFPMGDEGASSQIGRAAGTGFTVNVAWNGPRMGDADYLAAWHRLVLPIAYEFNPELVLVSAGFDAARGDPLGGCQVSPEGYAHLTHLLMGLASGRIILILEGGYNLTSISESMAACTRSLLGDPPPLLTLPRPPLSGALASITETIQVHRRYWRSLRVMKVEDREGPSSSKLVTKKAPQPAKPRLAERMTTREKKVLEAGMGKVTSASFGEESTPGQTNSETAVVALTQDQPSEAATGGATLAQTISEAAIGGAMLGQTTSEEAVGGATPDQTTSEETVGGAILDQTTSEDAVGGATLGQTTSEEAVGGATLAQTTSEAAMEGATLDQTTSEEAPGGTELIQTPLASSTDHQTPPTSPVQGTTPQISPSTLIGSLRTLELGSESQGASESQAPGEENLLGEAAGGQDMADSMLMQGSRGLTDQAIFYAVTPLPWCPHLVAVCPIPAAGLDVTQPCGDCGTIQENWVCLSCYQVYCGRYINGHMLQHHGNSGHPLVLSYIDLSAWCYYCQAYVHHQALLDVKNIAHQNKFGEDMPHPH
The experiment in a line: Inhibition of HDAC6 (unknown origin).

The target in series [15] is T1, Focal adhesion kinase 1. The experiment in a line: Inhibition of FAK (unknown origin) by ADP-Glo kinase assay. (In general: ADP-Glo first removes unused ATP, then detects ADP through luciferase.)
The target of series [16] is Epidermal growth factor receptor (Homo sapiens, UniProt P00533, T790M). The experiment in a line: Inhibition of EGFR T790M mutant (unknown origin).
In series [17] the target is T1, Focal adhesion kinase 1. The experiment in a line: Inhibition of FAK (unknown origin) by HTRF assay. (In TR-FRET formats the signal depends on donor and acceptor labels being close together.)
Series [18] has as its target Serine/threonine-protein kinase PLK1 (Homo sapiens, UniProt P53350). The series can be described thus: Inhibition of PLK1 (unknown origin).
The subject of the next series is BXPC-3. The experiment in a line: Antiproliferative activity against human BXPC-3 cells. In kind it is functional, cell-based.

pIC50, pKi: −log10 of the molar value.

T1 sequence (Q05397 whole entry): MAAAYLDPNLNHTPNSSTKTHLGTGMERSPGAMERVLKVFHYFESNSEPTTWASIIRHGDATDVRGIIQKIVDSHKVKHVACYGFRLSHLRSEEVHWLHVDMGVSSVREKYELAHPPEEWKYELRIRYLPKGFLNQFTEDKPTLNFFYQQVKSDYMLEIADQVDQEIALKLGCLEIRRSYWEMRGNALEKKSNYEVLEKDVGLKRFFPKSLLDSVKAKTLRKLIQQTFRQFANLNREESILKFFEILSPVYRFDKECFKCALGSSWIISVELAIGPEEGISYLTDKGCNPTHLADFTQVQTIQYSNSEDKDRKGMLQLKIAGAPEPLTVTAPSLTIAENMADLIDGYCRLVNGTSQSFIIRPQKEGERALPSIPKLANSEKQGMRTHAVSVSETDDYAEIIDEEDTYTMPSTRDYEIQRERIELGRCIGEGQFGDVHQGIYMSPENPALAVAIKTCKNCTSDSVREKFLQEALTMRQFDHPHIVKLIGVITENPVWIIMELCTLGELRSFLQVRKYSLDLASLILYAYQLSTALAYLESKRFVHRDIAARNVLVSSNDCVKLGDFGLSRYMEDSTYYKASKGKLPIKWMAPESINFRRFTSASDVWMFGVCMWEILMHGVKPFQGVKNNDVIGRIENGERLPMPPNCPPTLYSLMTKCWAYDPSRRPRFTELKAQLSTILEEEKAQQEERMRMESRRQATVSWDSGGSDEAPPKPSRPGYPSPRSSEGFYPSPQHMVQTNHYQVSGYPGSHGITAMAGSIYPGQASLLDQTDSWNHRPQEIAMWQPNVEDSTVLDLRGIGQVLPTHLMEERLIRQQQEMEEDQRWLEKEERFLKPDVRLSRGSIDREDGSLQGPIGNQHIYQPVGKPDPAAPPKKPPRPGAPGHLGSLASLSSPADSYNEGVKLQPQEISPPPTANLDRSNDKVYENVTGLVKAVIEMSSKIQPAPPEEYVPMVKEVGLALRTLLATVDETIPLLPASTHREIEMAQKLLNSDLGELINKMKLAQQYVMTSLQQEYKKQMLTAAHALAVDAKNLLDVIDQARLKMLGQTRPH
T2 sequence (Q14289 whole entry): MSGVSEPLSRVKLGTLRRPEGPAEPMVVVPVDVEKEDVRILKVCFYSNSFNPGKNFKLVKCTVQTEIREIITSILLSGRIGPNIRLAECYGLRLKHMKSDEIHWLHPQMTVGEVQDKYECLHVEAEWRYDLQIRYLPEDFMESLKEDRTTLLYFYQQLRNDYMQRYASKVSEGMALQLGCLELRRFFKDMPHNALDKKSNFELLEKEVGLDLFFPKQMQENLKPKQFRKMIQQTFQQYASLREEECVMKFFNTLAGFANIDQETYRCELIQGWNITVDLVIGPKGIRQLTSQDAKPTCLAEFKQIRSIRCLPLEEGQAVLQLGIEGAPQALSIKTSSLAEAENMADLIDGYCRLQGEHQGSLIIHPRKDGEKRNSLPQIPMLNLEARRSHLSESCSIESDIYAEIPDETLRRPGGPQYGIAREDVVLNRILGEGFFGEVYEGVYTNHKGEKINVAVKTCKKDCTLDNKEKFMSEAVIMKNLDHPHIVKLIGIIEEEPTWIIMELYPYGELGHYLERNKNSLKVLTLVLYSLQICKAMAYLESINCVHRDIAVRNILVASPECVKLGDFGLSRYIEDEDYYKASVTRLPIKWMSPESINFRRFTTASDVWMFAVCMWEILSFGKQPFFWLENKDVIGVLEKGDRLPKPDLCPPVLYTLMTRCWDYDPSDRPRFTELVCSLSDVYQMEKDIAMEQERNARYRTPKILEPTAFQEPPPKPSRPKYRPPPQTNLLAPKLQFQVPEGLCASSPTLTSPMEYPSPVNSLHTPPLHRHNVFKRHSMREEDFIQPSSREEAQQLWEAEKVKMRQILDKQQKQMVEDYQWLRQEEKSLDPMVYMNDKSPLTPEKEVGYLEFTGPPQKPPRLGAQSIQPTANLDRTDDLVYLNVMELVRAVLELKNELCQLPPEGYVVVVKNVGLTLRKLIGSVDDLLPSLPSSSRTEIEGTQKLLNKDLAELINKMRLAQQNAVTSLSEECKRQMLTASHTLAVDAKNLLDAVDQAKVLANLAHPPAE
Sequence of Proto-oncogene tyrosine-protein kinase ROS (P08922 whole entry): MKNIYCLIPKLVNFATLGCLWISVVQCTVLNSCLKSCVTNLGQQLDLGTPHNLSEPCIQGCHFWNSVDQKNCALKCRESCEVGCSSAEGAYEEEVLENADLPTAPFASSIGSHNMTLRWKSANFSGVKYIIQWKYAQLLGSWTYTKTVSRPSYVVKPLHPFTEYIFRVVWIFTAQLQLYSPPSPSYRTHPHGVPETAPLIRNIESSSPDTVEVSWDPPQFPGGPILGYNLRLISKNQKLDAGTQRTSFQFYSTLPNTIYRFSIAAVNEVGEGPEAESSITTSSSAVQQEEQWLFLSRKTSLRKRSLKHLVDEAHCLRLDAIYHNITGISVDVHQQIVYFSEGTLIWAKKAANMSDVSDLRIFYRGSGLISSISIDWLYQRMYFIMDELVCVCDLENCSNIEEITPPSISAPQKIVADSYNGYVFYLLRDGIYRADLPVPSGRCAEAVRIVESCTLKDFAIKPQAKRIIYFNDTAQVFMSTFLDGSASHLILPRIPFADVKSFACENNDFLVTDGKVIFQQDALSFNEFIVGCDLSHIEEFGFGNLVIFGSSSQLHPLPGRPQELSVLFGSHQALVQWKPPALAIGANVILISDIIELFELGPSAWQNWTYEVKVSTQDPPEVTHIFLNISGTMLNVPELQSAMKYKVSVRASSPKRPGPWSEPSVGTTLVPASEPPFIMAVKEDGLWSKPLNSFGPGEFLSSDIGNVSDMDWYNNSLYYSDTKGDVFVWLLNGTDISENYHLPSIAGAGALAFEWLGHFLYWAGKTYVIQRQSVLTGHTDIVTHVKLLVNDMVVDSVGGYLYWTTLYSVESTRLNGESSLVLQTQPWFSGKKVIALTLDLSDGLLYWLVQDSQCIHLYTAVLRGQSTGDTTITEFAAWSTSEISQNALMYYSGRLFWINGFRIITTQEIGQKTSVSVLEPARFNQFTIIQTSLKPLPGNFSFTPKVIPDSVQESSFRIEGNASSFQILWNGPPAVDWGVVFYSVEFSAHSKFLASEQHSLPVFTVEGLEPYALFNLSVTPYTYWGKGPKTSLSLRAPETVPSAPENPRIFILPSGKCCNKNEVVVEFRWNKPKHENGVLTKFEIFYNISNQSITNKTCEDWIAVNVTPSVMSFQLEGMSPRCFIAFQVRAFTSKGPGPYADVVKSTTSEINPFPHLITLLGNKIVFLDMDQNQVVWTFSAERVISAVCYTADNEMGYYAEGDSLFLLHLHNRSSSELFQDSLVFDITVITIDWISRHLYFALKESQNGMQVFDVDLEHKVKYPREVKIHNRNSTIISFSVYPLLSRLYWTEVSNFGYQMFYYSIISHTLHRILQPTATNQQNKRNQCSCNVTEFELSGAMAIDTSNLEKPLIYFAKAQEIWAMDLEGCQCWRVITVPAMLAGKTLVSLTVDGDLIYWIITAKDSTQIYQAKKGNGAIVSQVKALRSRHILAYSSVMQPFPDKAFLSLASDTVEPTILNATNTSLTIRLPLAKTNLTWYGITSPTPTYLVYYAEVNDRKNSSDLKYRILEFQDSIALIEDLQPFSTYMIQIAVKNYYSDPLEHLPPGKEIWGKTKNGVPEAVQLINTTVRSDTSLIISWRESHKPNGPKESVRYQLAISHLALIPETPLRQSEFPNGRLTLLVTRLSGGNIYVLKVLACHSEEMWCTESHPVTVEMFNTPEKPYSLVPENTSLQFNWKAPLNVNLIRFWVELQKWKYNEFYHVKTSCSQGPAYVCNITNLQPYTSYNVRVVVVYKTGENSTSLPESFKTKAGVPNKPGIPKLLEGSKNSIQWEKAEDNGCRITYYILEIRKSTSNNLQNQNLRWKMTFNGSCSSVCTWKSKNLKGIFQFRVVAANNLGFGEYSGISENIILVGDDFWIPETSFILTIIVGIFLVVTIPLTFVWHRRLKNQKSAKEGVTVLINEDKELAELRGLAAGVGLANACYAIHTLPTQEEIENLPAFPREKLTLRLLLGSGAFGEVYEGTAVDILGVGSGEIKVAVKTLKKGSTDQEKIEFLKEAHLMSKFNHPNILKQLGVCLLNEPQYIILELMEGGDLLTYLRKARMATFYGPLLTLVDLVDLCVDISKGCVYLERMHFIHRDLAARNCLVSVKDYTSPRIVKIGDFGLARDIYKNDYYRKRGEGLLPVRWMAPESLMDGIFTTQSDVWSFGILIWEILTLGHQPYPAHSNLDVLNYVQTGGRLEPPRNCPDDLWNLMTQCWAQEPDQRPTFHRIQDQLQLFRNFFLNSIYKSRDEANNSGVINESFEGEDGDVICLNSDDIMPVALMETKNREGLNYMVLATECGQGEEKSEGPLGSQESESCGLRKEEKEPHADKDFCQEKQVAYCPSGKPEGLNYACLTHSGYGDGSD
Sequence of Serine/threonine-protein kinase PLK1 (P53350 whole entry): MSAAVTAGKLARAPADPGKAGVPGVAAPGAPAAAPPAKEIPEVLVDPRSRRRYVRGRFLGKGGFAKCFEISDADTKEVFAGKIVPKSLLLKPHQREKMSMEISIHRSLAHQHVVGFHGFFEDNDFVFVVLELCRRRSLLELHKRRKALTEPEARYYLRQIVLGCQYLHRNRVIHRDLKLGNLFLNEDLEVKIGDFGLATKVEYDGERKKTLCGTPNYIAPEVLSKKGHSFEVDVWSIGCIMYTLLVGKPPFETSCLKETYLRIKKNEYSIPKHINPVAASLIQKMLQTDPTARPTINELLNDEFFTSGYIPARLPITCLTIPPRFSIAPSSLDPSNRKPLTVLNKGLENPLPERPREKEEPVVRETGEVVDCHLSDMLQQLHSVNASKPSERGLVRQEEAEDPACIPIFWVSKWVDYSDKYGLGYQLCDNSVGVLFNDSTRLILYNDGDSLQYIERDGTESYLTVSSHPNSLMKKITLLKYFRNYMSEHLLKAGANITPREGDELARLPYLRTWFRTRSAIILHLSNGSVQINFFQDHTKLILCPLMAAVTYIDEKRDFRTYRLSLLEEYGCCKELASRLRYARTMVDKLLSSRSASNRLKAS

For `CNC(=O)c1ccccc1Nc1cc(Nc2ccc(N3CCN(CC(=O)N[C@H](C(=O)N4C[C@H](O)C[C@H]4C(=O)N[C@@H](C)c4ccc(-c5scnc5C)cc4)C(C)(C)C)CC3)cc2OC)ncc1C(F)(F)F`, at Focal adhesion kinase 1 [1], the pIC50 was 8.80.
On to `CNC(=O)c1ccc(Nc2ncc(C(F)(F)F)c(NCc3nccnc3N(C)S(C)(=O)=O)n2)cc1` [DEFACTINIB], for which, in [2], the negative logarithm of the IC50 (pIC50) is 9.22.
As for `O=C1CCc2cccc(Oc3nc(Nc4ccc(N5CCN(C(=S)SCCCN6CCOCC6)CC5)cc4)ncc3C(F)(F)F)c21`, at Focal adhesion kinase 1 [3], the pIC50 is 7.35.
As to `Cc1cc(Nc2ncc(Cl)c(Nc3ccccc3S(=O)(=O)C(C)C)n2)c(OC(C)C)cc1C1=CCN(C2CCOCC2)CC1` [APG-2449], the pIC50 is 8.27 at Focal adhesion kinase 1 [3], 8.80 in series [4] and 9.09 in [5].
In series [6], `CNC(=O)c1ccccc1Nc1cc(Nc2cc(C)c(C3CCNCC3)cc2OC(C)C)ncc1C(F)(F)F` showed a pIC50 of 6.21.
On Focal adhesion kinase 1 [7], `OCC[N+]12CN3CN(CN(C3)C1)C2` showed a pIC50 of 7.30.
As for `CONC(=O)c1ccccc1Nc1cc(Nc2cc(C)nn2C(C)C)ncc1Cl` [GSK-2256098], the pKi on Focal adhesion kinase 1 [8] was 9.40.
`CNC(=O)c1ccccc1Nc1nc(Nc2ccc(N3CCN(C)CC3)cc2)nc2[nH]ccc12` had a pIC50 on Focal adhesion kinase 1 [3] of 7.72.
For `CN(c1ncccc1CNc1nc(Nc2ccc(N3CCN(CCCCCCC(=O)NCCNc4cccc5c4C(=O)N(C4CCC(=O)NC4=O)C5=O)CC3)cc2)ncc1C(F)(F)F)S(C)(=O)=O` (stereo not drawn), the half-life in series [9] is greater than 3.25 h.
In series [10], `C=CC(=O)NCCNc1c(NCc2ccc(Nc3ncc(Cl)c(Nc4ccccc4C(=O)NC)n3)cc2)c(=O)c1=O` came in with a bioavailability of 21%.
Regarding `Cc1ncsc1-c1ccc(CNC(=O)[C@@H]2C[C@@H](O)CN2C(=O)[C@@H](NC(=O)CCOCCOc2ccc(Nc3ncc(C(F)(F)F)c(NCc4cccc(N(C)S(C)(=O)=O)c4)n3)cc2)C(C)(C)C)cc1`, the DC50 in [11] was 3 nM.
On to `CNC(=O)c1ccccc1Nc1ncnc(Nc2cc(OC)c(OC)c(OC)c2)n1`, for which the IC50 in series [12] stood at 370 nM.
As to `CNC(=O)c1ccccc1Nc1cc(Nc2ccc(NC(=O)CCCCCCC(=O)NO)cc2)ncc1Cl`, the negative-log IC50 (pIC50) against Focal adhesion kinase 1 [13] was 6.88; in [14], 7.80.
In the case of `CNC(=O)c1ccccc1Nc1nc(Nc2ccc(NC(=O)CN3CCOCC3)c(C)c2)ncc1Cl`, the pIC50 was 8.99 at Focal adhesion kinase 1 [15] and 8.41 in series [16].
Take `Clc1cccc(Cn2ccc3cnc(Nc4ccc(N5CCNCC5)cc4)nc32)c1`: the pIC50 against Focal adhesion kinase 1 [17] is 8.00.
Turning to `O=C(CSC1Nc2ccccc2C(=O)N1c1ccccc1)N1CCN(c2ccccc2Cl)CC1` (stereo not drawn), the pIC50 at Focal adhesion kinase 1 [3] is 7.07; in series [18] it was 7.10.
On to `CNC(=O)c1ccccc1Nc1cc(Nc2cc(C)c(C3CCN(CCCCCCNC(=O)COc4cccc5c4C(=O)N(C4CCC(=O)NC4=O)C5=O)CC3)cc2OC(C)C)ncc1C(F)(F)F` (stereo not drawn), for which, on Focal adhesion kinase 1 [3], the pIC50 is 7.59.
In turn, `Cn1cc(-c2nn3cc(-c4ccco4)nc3s2)c2ccccc21` showed a pIC50 in the series on BXPC-3 of 5.98.

What is called pIC50 is the IC50 on a negative log10 scale, so that one unit is a factor of ten. Read a low pIC50 as a high IC50. Usually pKi stands for the negative decadic logarithm of the Ki, by convention in mol/L. What is called half-life is how long it takes for the measured level to halve. In general, bioavailability refers to dose-corrected exposure relative to a reference, in per cent. High values mean good availability, low ones poor availability. The DC50 is the concentration at which degradation of the target reaches its halfway point. As a reminder, the IC50 is the concentration needed to halve the response being measured.
